Data from PMC8395111 (International Journal of Molecular Sciences, 2021).
Like-named read-outs stand apart in the source and are kept apart here. Square brackets hold non-standard residues; d marks the D form. Peptide text beside a SMILES is read from it.

Legend:
[1] = pH 7.4
Description: (§4) Spectra of tryptophan fluorescence were measured at room temperature with a Cary Eclipse fluorescence spectrophotometer of Varian (Salt Lake City, UT, USA). The excitation wavelength was set to 280 nm, and the slid-width was 10 nm. The emission was recorded between 300 nm and 410 nm.
(§5) Quenching of Tryptophan was carried out in the presence and absence of phospholipid liposomes (lipid-to-peptide ratio 25:1) using 0.1, 0.4 and 0.7 M acrylamide. The data were analyzed according to the Stern–Volmer equation (Equation (2)):(2) F0/F=1+KSV×[Q] where F0 and F represent the fluorescence emission intensities in the absence and presence of the quencher molecule (Q), and KSV is the Stern–Volmer quenching constant, which is a quantitative measure for the accessibility of tryptophan to acrylamide [80].

[2] = Ex vitro stability study in human serum, SDS-PAGE; format: in vitro ADME; conditions: 50 µg peptide in 200 µL, 37 °C, Coomassie
Description: (§1) Peptide stability was tested in the presence of fetal bovine serum (FBS, Gibco®) and human serum (HS, Sigma-Aldrich, Deisenhofen, Germany). Therefore 50 µg of the peptide was mixed with 0 µL (0%), 4 µL (2%) and 20 µL (10%) pure FBS or HS and refilled with PBS buffer to a total volume of 200 µL and incubated for 1 day, 6 days and 7 days at 37 °C. Sample aliquots of 10 µL were taken before incubation (0 h) and after 1 h, 8 h, 24 h, 2 days and 7 days of incubation. The aliquots (10 µL) were immediately mixed with 10 µL 2 × loading sample buffer and stored at −20 °C. The collected samples of the stability studies were analyzed by SDS- polyacrylamide gel electrophoresis (BioRad, Mini-PROTEAN Tetra System). As a standard, the Ultra-low Range Molecular Weight Marker M3546 (Sigma-Aldrich, Deisenhofen, Germany) was used. Before use, the collected samples of the stability studies (10 µL aliquot + 10 µL 2 xLD), as well as the Ultra-Low Molecular Weight marker (ULMW), were brought to room temperature. A concentration series in the range of 0.5 µg, 1 µg and 2.5 µg peptide per 10 µL sample volume was prepared in PBS for each peptide. In total, 10 µL of the resulting samples (0.5 µg, 1 µg and 2.5 µg peptide) were mixed with 10 µL 2 × loading buffer. Afterwards, all samples (collected samples, ULMW, concentration series) were incubated at 95 °C for 10 min.

[3] = Tryptophan fluorescence and acrylamide quenching in buffer (solubility/aggregation); conditions: for λ em,max / KSV (Stern–Volmer constant): PBS, mean ± SD, three experiments; for λ em,max: Trp fluorescence, excitation 280 nm, room temperature; for KSV (Stern–Volmer constant): acrylamide 0.1, 0.4, 0.7 M
Description: as §4, §5

[4] = Ex vitro stability study in fetal bovine serum, SDS-PAGE; format: in vitro ADME; conditions: 50 µg peptide in 200 µL, 37 °C, Coomassie, at least two measurements
Description: as §1

[5] = system: glioblastoma cell line U-87 mg; format: cell-based; conditions: PI-uptake
Description: (§2) To determine peptide-induced cell death, cells were resuspended in respective media (see Section 2.2) and diluted to a concentration of 1 × 10^6 cells/mL. 100 µL Aliquots (10^5 cells) were incubated with different peptide concentrations (5 µM to 100 µM) for up to 8 h in the presence of propidium iodide PI (2 µL/10^5 cells of 50 µg/mL, Molecular Probes Inc., Eugene, OR, USA) at room temperature in black 96-well plates. PI-uptake was measured after 0, 1, 2, 4 and 8 h using the GloMax® Multi+ Detection System (Promega, Madison, WI, USA). Cytotoxicity was calculated from the percentage of PI-positive cells in media alone (P0) and in the presence of peptide (PX) (see Equation (3)). Triton-X-100 was used to determine 100% of PI-positive cells (P100). (3) %PI−uptake=100×(PX−P0)/(P100−P0)
(§3) Excitation and emission wavelengths were 536 nm and 617 nm, respectively. The cytotoxicity of the peptides was further investigated in the presence of different serum types and amounts, as well as in the presence of protease inhibition.

[6] = system: melanoma cell line SBcl-2; format: cell-based; conditions: SBcl-2, PI-uptake
Description: as §2, §3

[7] = system: glioblastoma cell line LN-229; format: cell-based; conditions: LN-229, PI-uptake
Description: as §2, §3

[8] = Propidium iodide-uptake toxicity assay, NHDF; format: cell-based, human; conditions: human, normal human dermal fibroblasts (NHDF), PI-uptake, fibroblast growth medium (2% FBS)
Description: as §2, with “([…])” for “(10^5 cells) were incubated with different peptide concentrations (5 µM to 100 µM)”
as §3

[9] = cited from earlier work
Excerpt: The blood-brain barrier (BBB) is formed by a tightly sealed monolayer of endothelial cells, and the tight junctions between the endothelial cells are responsible for the barrier function of the BBB. Various drugs are discovered to treat central nervous system (CNS) disorders but fail to enter the market because of their inability to cross the BBB [19]. Vemurafenib, an antitumoral agent that is capable to pass the BBB, was approved in 2011. It inhibits the BRAF-serine/threonine-kinase and leads to a median survival of 13.6 months compared to 9.7 months upon treatment with dacarbazine [ ...

melanoma cell line A375 = format: cell-based; conditions: A375, PI-uptake, 10% FBS
Description: as §2, §3
The standard growth medium used for cell line A375 was DMEM containing 10% fetal bovine serum (FBS). Before the study of peptide-induced cytotoxicity, cells were diluted to 10^5 cells/100 µL in DMEM containing 2% FBS. […]

[10] = not given; remark: listed apart in the source
[11] = system: normal human dermal fibroblasts NHDF; test: Propidium iodide-uptake toxicity assay, NHDF; format: cell-based; conditions: 2–20 µM peptide, 8 h
Description: as §2, with “([…])” for “(10^5 cells) were incubated with different peptide concentrations (5 µM to 100 µM)”
as §3

[12] = 2% HS in PBS, 7 days, at least two measurements
[13] = 2% FBS in PBS, up to 7 days (9D-RDP215 main series 2 days, repeat 7 days)

Structure (SMILES) | peptide degradation [2, 12] | λ em,max [3] [nm] | KSV (Stern–Volmer constant) [3] [M⁻¹] | peptide degradation [4, 13] | peptide degradation ([4]; 10% FBS in PBS, up to 7 days) | LC50 after 8 h [5] [µM] | LC50 after 8 h [6] [µM] | LC50 after 8 h [7] [µM] | CC50 at 4 h [8] [µM] | CC50 at 8 h [8] [µM] | median survival [9] [months] | further results
CC[C@H](C)[C@H](NC(=O)[C@@H](CCCNC(=N)N)NC(=O)[C@H](Cc1c[nH]c2ccccc12)NC(=O)[C@H](N)Cc1ccccc1)C(=O)N[C@H](CCCNC(=N)N)C(=O)N[C@H](C(=O)N[C@H](CCCNC(=N)N)C(=O)N[C@H](CCCNC(=N)N)C(=O)N1CCC[C@H]1C(=O)N[C@H](CCCNC(=N)N)C(=O)N[C@H](CCCNC(=N)N)C(=O)N[C@H](C(=O)N[C@H](CCCNC(=N)N)C(=O)N[C@H](C(=O)N[C@H](CCCNC(=N)N)C(=O)N[C@@H](Cc1c[nH]c2ccccc12)C(=O)N[C@H](Cc1ccccc1)C(N)=O)[C@@H](C)CC)[C@@H](C)CC)[C@@H](C)CC [9D-RDP215, 9D-R-DIM-P-LF11-215] (H-[dF]W[dR]I[dR]I[dR][dR]P[dR][dR]I[dR]I[dR]W[dF]-NH2) | does not show any peptide degradation | 354 ± 0.5 | 27.0 ± 2.8 | no degradation | no degradation | 1.6 ± 0.1 | 1.8 ± 0.1 | 1.4 ± 5.1 | 58.8 ± 4.2 | 18.9 ± 1 | – | solubility / aggregation in buffer [1]: completely dissolved and not aggregated; peptide degradation ([2]; 10% HS in PBS, up to 7 days, at least two measurements): does not show any peptide degradation
CN(C)/N=N/c1[nH]cnc1C(N)=O [dacarbazine] | – | – | – | – | – | – | – | – | – | – | 9.7 | –
CC[C@H](C)[C@H](NC(=O)[C@H](CCCNC(=N)N)NC(=O)[C@@H](NC(=O)[C@H](CCCNC(=N)N)NC(=O)[C@H](CCCNC(=N)N)NC(=O)[C@@H]1CCCN1C(=O)[C@H](CCCNC(=N)N)NC(=O)[C@H](CCCNC(=N)N)NC(=O)[C@@H](NC(=O)[C@H](CCCNC(=N)N)NC(=O)[C@@H](NC(=O)[C@H](CCCNC(=N)N)NC(=O)[C@H](Cc1c[nH]c2ccccc12)NC(=O)[C@@H](N)Cc1ccccc1)[C@@H](C)CC)[C@@H](C)CC)[C@@H](C)CC)C(=O)N[C@@H](CCCNC(=N)N)C(=O)N[C@@H](Cc1c[nH]c2ccccc12)C(=O)N[C@@H](Cc1ccccc1)C(N)=O [RDP215, R-DIM-P-LF11-215] (H-FWRIRIRRPRRIRIRWF-NH2) | completely degraded | 356 ± 0 | 24.7 ± 5.4 | No degradation | No degradation | 3.0 ± 0.1 | 4.7 ± 0.4 | 1.7 ± 0.1 | 99.1 ± 0.1 | 68.2 ± 1.8 | – | λem,max with DPPS: 336 nm; peptide degradation ([2]; 2% HS in PBS, 1 h to 2 days): ongoing peptide degradation; peptide degradation ([2]; 10% HS in PBS, 24 h, at least two measurements): completely degraded; solubility / aggregation in buffer ([3]; PBS pH 7.4, concluded from Trp emission maximum and KSV): completely dissolved and not aggregated; LC50 after 4 h (melanoma cell line A375; 4 h): 17.1 ± 1.5 µM; LC50 after 8 h (melanoma cell line A375; 8 h): 3.8 ± 0.3 µM; decrease of KSV vs buffer [10]: 20.7 M⁻¹; harm on NHDF cells (PI-uptake) [11]: no harm
CCCS(=O)(=O)Nc1ccc(F)c(C(=O)c2c[nH]c3ncc(-c4ccc(Cl)cc4)cc23)c1F [Vemurafenib, vemurafenib] | – | – | – | – | – | – | – | – | – | – | 13.6 | –
